Values belong to the compound of their own block, whether it stands above or below them. Activity calls are given as the source filed them.
Legend:
Acetylcholinesterase [1] = target: T1, Acetylcholinesterase (Rattus norvegicus, UniProt P37136); experiment: Compound was evaluated in vitro in rats for the inhibition of brain (striatal) acetylcholinesterase (AChEI) using acetylthiocholine as substrate; 0.024-0.14
T1 sequence (P37136 whole entry): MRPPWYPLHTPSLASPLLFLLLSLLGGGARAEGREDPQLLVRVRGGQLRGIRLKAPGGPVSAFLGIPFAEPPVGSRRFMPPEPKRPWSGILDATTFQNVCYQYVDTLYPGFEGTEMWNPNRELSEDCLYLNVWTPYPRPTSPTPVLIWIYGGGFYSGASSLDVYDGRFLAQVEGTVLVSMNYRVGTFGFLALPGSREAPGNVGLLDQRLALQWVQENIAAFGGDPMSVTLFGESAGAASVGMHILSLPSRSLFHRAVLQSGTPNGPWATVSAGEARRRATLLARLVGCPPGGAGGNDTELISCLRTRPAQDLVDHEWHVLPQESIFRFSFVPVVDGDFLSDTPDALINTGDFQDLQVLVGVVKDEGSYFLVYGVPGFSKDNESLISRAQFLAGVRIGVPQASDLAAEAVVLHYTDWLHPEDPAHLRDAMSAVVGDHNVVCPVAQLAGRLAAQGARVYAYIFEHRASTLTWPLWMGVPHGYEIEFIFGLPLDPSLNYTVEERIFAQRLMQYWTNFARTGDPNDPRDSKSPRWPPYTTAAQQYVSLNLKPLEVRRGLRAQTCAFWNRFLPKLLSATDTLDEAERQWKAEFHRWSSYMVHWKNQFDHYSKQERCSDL

[2] = target: T2, Acetylcholinesterase (Rattus norvegicus) (UniProt P37136); experiment: Tested for percent ex vivo inhibition of rat striatal acetylcholinesterase at peroral dose of 20 mg/kg at 1 hr; assay type: organism-based; set-up: dose 20 mg/kg
T2 sequence (whole entry): T1 sequence (P37136 whole entry)

[3] = target: T2, Acetylcholinesterase (Rattus norvegicus); experiment: Tested for percent ex vivo inhibition of rat striatal acetylcholinesterase at peroral dose of 20 mg/kg at 24 hr; assay type: organism-based; set-up: dose 20 mg/kg
[4] = target: T2, Acetylcholinesterase (Rattus norvegicus); experiment: Tested for percent ex vivo inhibition of rat striatal acetylcholinesterase at peroral dose of 20 mg/kg at 4 hr; assay type: organism-based; set-up: dose 20 mg/kg
Cholinesterase [5] = target: T3, Cholinesterase (Homo sapiens, UniProt P06276); experiment: In vitro inhibition of human serum Butyrylcholinesterase using butyrylthiocholine as substrate; 0.023-0.041
T3 sequence (P06276 whole entry): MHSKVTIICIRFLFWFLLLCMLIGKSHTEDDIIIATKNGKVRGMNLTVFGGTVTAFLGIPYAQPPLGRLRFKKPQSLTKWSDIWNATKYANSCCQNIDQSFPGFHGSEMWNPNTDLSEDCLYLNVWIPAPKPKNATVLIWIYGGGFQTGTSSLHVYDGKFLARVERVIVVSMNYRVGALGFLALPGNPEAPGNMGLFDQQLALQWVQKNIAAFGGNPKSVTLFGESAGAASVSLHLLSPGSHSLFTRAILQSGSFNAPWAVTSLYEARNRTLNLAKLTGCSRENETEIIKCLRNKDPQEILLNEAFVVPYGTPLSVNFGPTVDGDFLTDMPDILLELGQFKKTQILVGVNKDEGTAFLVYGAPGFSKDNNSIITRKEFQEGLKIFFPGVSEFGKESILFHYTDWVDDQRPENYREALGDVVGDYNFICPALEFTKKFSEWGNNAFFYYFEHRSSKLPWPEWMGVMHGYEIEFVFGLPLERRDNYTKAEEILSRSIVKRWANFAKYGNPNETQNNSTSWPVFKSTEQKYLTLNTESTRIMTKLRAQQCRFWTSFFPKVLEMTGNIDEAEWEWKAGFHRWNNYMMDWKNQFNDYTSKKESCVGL

Mus musculus [6] = experiment: Compound was evaluated in vivo for the significant activity at all doses in reversing the Scopolamine dementia dark avoidance (SDDA) in mice; 1/6; assay type: functional
Mus musculus [7] = experiment: The percent of animals in the scopolamine-drug group with latencies greater than the cutoff time at subcutaneous dose of 0.63 mg/kg; assay type: functional
Acetylcholinesterase [8] = target: T1, Acetylcholinesterase; experiment: Compound was evaluated in vitro in rats for the inhibition of brain (striatal) acetylcholinesterase (AChEI) using acetylthiocholine as substrate; 0.0026-0.031
[9] = target: T2, Acetylcholinesterase (Rattus norvegicus); experiment: Compound was evaluated ex vivo for the inhibition of acetylcholinesterase (AChEI) one hour after oral administration
Cholinesterase [10] = target: T3, Cholinesterase; experiment: In vitro inhibition of human serum Butyrylcholinesterase using butyrylthiocholine as substrate; 0.00029-0.001
Mus musculus [11] = experiment: Compound evaluated in vivo for reversing the Scopolamine dementia dark avoidance (SDDA) in mice expressed number of active dosages versus the total number of dosages evaluated; 5/7 and active; assay type: functional, organism-based
Mus musculus [12] = experiment: The percent of animals in the scopolamine-drug group with latencies greater than the cutoff time at subcutaneous dose of 0.001 mg/kg; assay type: functional
Mus musculus [13] = experiment: The percent of animals in the scopolamine-drug group with latencies greater than the cutoff time at subcutaneous dose of 0.01 mg/kg; assay type: functional
Mus musculus [14] = experiment: The percent of animals in the scopolamine-drug group with latencies greater than the cutoff time at subcutaneous dose of 0.1 mg/kg; assay type: functional
Mus musculus [15] = experiment: The percent of animals in the scopolamine-drug group with latencies greater than the cutoff time at subcutaneous dose of 1.0 mg/kg; assay type: functional
Mus musculus [16] = experiment: The percent of animals in the scopolamine-drug group with latencies greater than the cutoff time at subcutaneous dose of 0.003 mg/kg; assay type: functional
Acetylcholinesterase [17] = target: T1, Acetylcholinesterase; experiment: Compound was evaluated in vitro in rats for the inhibition of brain (striatal) acetylcholinesterase (AChEI) using acetylthiocholine as substrate; 21-88
[18] = target: T4, Muscarinic acetylcholine receptor M4 (Homo sapiens) (UniProt P08173); experiment: In vitro inhibition of muscarinic receptor stimulation; NI=No inhibition
T4 sequence (whole entry): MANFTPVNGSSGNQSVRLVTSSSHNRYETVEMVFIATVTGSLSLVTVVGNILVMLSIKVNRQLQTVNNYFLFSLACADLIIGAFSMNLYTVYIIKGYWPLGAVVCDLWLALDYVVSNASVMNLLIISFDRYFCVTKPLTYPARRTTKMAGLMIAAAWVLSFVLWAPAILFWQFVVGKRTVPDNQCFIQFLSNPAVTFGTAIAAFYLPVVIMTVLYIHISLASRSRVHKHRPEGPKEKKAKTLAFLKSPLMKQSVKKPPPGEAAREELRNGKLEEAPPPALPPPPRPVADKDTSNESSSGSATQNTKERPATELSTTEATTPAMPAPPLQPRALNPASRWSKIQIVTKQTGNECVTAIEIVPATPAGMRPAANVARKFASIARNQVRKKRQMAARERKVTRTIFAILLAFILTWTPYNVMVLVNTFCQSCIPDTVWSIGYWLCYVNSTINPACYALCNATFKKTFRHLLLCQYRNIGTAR

[19] = target: T5, Acetylcholine receptor subunit delta (Torpedo californica) (UniProt P02718); experiment: In vitro inhibition of Nicotinic acetylcholine receptor stimulation; NI=No inhibition
T5 sequence (whole entry): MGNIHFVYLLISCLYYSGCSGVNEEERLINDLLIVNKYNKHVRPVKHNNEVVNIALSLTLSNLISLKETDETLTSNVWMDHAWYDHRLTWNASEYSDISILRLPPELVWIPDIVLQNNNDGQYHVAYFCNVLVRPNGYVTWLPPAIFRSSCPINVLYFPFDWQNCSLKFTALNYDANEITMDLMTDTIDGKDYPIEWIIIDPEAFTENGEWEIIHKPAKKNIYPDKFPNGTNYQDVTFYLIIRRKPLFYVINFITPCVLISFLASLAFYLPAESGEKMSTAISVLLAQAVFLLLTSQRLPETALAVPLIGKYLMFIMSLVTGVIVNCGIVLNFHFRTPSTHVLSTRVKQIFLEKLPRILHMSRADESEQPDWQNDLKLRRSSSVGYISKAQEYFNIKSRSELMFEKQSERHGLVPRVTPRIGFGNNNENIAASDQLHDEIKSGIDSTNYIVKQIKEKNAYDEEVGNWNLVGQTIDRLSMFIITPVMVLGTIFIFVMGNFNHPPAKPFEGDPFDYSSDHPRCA

Acetylcholinesterase [20] = target: T1, Acetylcholinesterase; experiment: Compound was evaluated in vitro in rats for the inhibition of brain (striatal) acetylcholinesterase (AChEI) using acetylthiocholine as substrate; 3.3-4.8
Cholinesterase [21] = target: T3, Cholinesterase; experiment: In vitro inhibition of human serum Butyrylcholinesterase using butyrylthiocholine as substrate; 0.69-1.2
Mus musculus [22] = experiment: Compound was evaluated in vivo for the significant activity at all doses in reversing the Scopolamine dementia dark avoidance (SDDA) in mice; 2/3; assay type: functional
Mus musculus [23] = experiment: The percent of animals in the scopolamine-drug group with latencies greater than the cutoff time at subcutaneous dose of 3.0 mg/kg; assay type: functional
Acetylcholinesterase [24] = target: T1, Acetylcholinesterase; experiment: Compound was evaluated in vitro in rats for the inhibition of brain (striatal) acetylcholinesterase (AChEI) using acetylthiocholine as substrate; 0.014-0.14
[25] = target: T2, Acetylcholinesterase (Rattus norvegicus); experiment: Tested for percent ex vivo inhibition of rat striatal acetylcholinesterase at peroral dose of 20 mg/kg at 6 hr; assay type: organism-based; set-up: dose 20 mg/kg
Cholinesterase [26] = target: T3, Cholinesterase; experiment: In vitro inhibition of human serum Butyrylcholinesterase using butyrylthiocholine as substrate; 0.01-0.069
Mus musculus [27] = experiment: Compound evaluated in vivo for reversing the Scopolamine dementia dark avoidance (SDDA) in mice expressed number of active dosages versus the total number of dosages evaluated; 4/9 and active; assay type: functional, organism-based
Mus musculus [28] = experiment: The percent of animals in the scopolamine-drug group with latencies greater than the cutoff time at subcutaneous dose of 0.04 mg/kg;; assay type: functional
Mus musculus [29] = experiment: The percent of animals in the scopolamine-drug group with latencies greater than the cutoff time at subcutaneous dose of 1.25 mg/kg; assay type: functional
Mus musculus [30] = experiment: The percent of animals in the scopolamine-drug group with latencies greater than the cutoff time at subcutaneous dose of 2.5 mg/kg; assay type: functional
Mus musculus [31] = experiment: The percent of animals in the scopolamine-drug group with latencies greater than the cutoff time at subcutaneous dose of 5 mg/kg; assay type: functional
Acetylcholinesterase [32] = target: T1, Acetylcholinesterase; experiment: Compound was evaluated in vitro in rats for the inhibition of brain (striatal) acetylcholinesterase (AChEI) using acetylthiocholine as substrate; 0.084-0.19
[33] = target: T2, Acetylcholinesterase (Rattus norvegicus); experiment: Tested for percent ex vivo inhibition of rat striatal acetylcholinesterase at peroral dose of 10 mg/kg at 1 hr; assay type: organism-based; set-up: dose 10 mg/kg
[34] = target: T2, Acetylcholinesterase (Rattus norvegicus); experiment: Tested for percent ex vivo inhibition of rat striatal acetylcholinesterase at peroral dose of 10 mg/kg at 24 hr; assay type: organism-based; set-up: dose 10 mg/kg
[35] = target: T2, Acetylcholinesterase (Rattus norvegicus); experiment: Tested for percent ex vivo inhibition of rat striatal acetylcholinesterase at peroral dose of 10 mg/kg at 4 hr; assay type: organism-based; set-up: dose 10 mg/kg
[36] = target: T2, Acetylcholinesterase (Rattus norvegicus); experiment: Tested for percent ex vivo inhibition of rat striatal acetylcholinesterase at peroral dose of 10 mg/kg at 6 hr; assay type: organism-based; set-up: dose 10 mg/kg
[37] = target: T2, Acetylcholinesterase (Rattus norvegicus); experiment: Dose required to exhibit robust maximal effect for acetylcholinesterase (AChE) inhibition following intraperitoneal administration
Cholinesterase [38] = target: T3, Cholinesterase; experiment: In vitro inhibition of human serum Butyrylcholinesterase using butyrylthiocholine as substrate; 0.15-0.22
Mus musculus [39] = experiment: Compound evaluated in vivo for reversing the Scopolamine dementia dark avoidance (SDDA) in mice expressed number of active dosages versus the total number of dosages evaluated; 3/3 and active; assay type: functional, organism-based
Mus musculus [40] = experiment: The percent of animals in the scopolamine-drug group with latencies greater than the cutoff time at subcutaneous dose of 0.03 mg/kg; assay type: functional
Mus musculus [41] = experiment: The percent of animals in the scopolamine-drug group with latencies greater than the cutoff time at subcutaneous dose of 0.3 mg/kg; assay type: functional

SMILES: CCCN(c1ccncc1F)n1cc(C)c2cc(OC(=O)NC)ccc21
IC50 (Acetylcholinesterase [1]): 58 nM
inhibition [2]: 50%
inhibition [3]: 9%
inhibition [4]: 41%
IC50 (Cholinesterase [5]): 31 nM
Activity (Mus musculus [6]): 1
Response (Mus musculus [7]): 27%

SMILES: CCCCCCCNC(=O)Oc1ccc2c(c1)[C@]1(C)CCN(C)[C@@H]1N2C [EPTASTIGMINE]
IC50 (Acetylcholinesterase [8]): 9 nM
ED50 [9]: 10.1 mg/kg
IC50 (Cholinesterase [10]): 0.69 nM
Activity (Mus musculus [11]): Active
Response (Mus musculus [12]): 40%
Response (Mus musculus [13]): 45%
Response (Mus musculus [14]): 33%
Response (Mus musculus [15]): 20%
Response (Mus musculus [16]): 53%

SMILES: CCCCCCCNC(=O)Oc1ccc2c(c1)c(C)cn2N(CCC)c1ccncc1F
IC50 (Acetylcholinesterase [17]): 43000 nM

Activity [18]: inactive
Activity [19]: inactive
SMILES: CCCN(c1ccncc1)n1ccc2ccccc21

SMILES: CCCCNC(=O)Oc1ccc2c(c1)c(C)cn2N(CCC)c1ccncc1F
IC50 (Acetylcholinesterase [20]): 4000 nM
inhibition [3]: 11%
inhibition [4]: 26%
IC50 (Cholinesterase [21]): 920 nM
Activity (Mus musculus [22]): 2
Response (Mus musculus [15]): 33%
Response (Mus musculus [23]): 33%

SMILES: CCCN(c1ccncc1F)n1cc(C)c2cc(OC(=O)NCc3ccccc3)ccc21
IC50 (Acetylcholinesterase [24]): 43 nM
inhibition [2]: 15%
inhibition [3]: 2%
inhibition [4]: 12%
inhibition [25]: 6%
IC50 (Cholinesterase [26]): 27 nM
Activity (Mus musculus [27]): Active
Response (Mus musculus [28]): 20%
Response (Mus musculus [29]): 20%
Response (Mus musculus [30]): 20%
Response (Mus musculus [31]): 20%

SMILES: CNC(=O)Oc1ccc2c(c1)c(C)cn2Nc1ccncc1F
IC50 (Acetylcholinesterase [32]): 130 nM
inhibition [33]: 67%
inhibition [34]: 0%
inhibition [35]: 56%
inhibition [36]: 3%
inhibition [2]: 82%
inhibition [3]: 20%
inhibition [4]: 84%
inhibition [25]: 82%
DOSE [37]: 0.625 mg/kg
ED50 [9]: 8.3 mg/kg
IC50 (Cholinesterase [38]): 190 nM
Activity (Mus musculus [39]): Active
Response (Mus musculus [40]): 40%
Response (Mus musculus [41]): 28%
Response (Mus musculus [14]): 21%
